Results published in the supplement of paper PMC10307832.

Tests used:
Assay in all cases: relative viability (nuclei count vs DMSO), 5 days (fraction); higher = more cells survive
[1] = compound: CC1CC(=O)N(C2=CN=C(N=C2N1C3CCCC3)NC4=C(C=C(C=C4)C(=O)NC5CCN(CC5)C)OC)C [NPK76-II-72-1] + Nc1nc2[nH]cc(CCc3ccc(C(=O)N[C@@H](CCC(=O)O)C(=O)O)cc3)c2c(=O)[nH]1 [Pemetrexed] (partner 0.2 µM)
Summary of the method: (§1)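 Values are medians from duplicate plates. Each reflects relative viability, defined as the nuclei count of treated wells over that of vehicle wells. Lung cancer cell lines in 1536-well plates were pin-tool dosed one day after seeding with one drug alone or with a fixed anchor-drug dose plus five library-drug doses (not always all listed) in √10 steps, then fixed, stained and imaged at 4× after 5 days.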

[2] = compound: CC1CC(=O)N(C2=CN=C(N=C2N1C3CCCC3)NC4=C(C=C(C=C4)C(=O)NC5CCN(CC5)C)OC)C [NPK76-II-72-1] + C[C@@H](Oc1cc(-c2cnn(C3CCNCC3)c2)cnc1N)c1c(Cl)ccc(F)c1Cl [Crizotinib] (partner 1 µM)
Summary of the method: as §1

[3] = compound: CC1CC(=O)N(C2=CN=C(N=C2N1C3CCCC3)NC4=C(C=C(C=C4)C(=O)NC5CCN(CC5)C)OC)C [NPK76-II-72-1] + CCNC(=O)c1noc(-c2cc(C(C)C)c(O)cc2O)c1-c1ccc(CN2CCOCC2)cc1 [Luminespib] (partner 0.01 µM)
Summary of the method: as §1

BI-2536 + OSI-027 = compound: CC[C@@H]1C(=O)N(C)c2cnc(Nc3ccc(C(=O)NC4CCN(C)CC4)cc3OC)nc2N1C1CCCC1 [BI-2536] + COc1cccc2cc(-c3nc([C@H]4CC[C@H](C(=O)O)CC4)n4ncnc(N)c34)[nH]c12 [OSI-027] (partner 0.5 µM)
Summary of the method: as §1

Row | Cell Line | relative viability ([1]; first compound 0.01 µM) | relative viability ([1]; first compound 0.03162 µM) | relative viability ([1]; first compound 0.1 µM) | relative viability ([1]; first compound 1 µM) | relative viability ([2]; first compound 0.01 µM) | relative viability ([2]; first compound 0.03162 µM) | relative viability ([2]; first compound 0.1 µM) | relative viability ([2]; first compound 0.3162 µM) | relative viability ([2]; first compound 1 µM) | relative viability ([3]; first compound 0.01 µM) | relative viability ([3]; first compound 0.03162 µM) | relative viability ([3]; first compound 0.1 µM) | relative viability ([3]; first compound 0.3162 µM) | relative viability ([3]; first compound 1 µM) | relative viability (BI-2536 + OSI-027; first compound 0.01 µM) | relative viability (BI-2536 + OSI-027; first compound 0.03162 µM) | relative viability (BI-2536 + OSI-027; first compound 0.1 µM) | relative viability (BI-2536 + OSI-027; first compound 0.3162 µM) | relative viability (BI-2536 + OSI-027; first compound 1 µM) | relative viability ([1]; first compound 0.3162 µM)
1 | HARA | 0.293 | 0.28 | 0.256 | 0.195 | 0.993 | 1.2 | 1.03 | 1.01 | 1.24 | 0.854 | 0.831 | 0.668 | 0.439 | 0.895 | 0.512 | 0.738 | 0.152 | 0.0483 | 0.0491 | 
2 | HCC-15 | 0.214 | 0.23 | 0.219 | 0.235 | 0.773 | 0.874 | 0.846 | 0.756 | 0.834 | 0.226 | 0.256 | 0.275 | 0.16 | 0.318 | 0.723 | 0.699 | 0.218 | 0.102 | 0.122 | 0.225
3 | LCLC-97TM1 | 0.178 | 0.196 | 0.164 | 0.155 |  | 0.414 | 0.438 | 0.259 | 0.354 | 0.673 | 0.768 | 0.532 | 0.748 | 0.748 | 0.575 | 0.538 | 0.434 | 0.138 | 0.167 | 0.158
4 | RERF-LC-KJ | 0.469 | 0.505 | 0.46 | 0.506 | 0.808 | 0.644 | 0.771 | 0.728 | 0.868 | 1.33 | 1.41 | 1.3 | 1.21 | 1.33 | 0.64 | 0.361 | 0.184 | 0.188 | 0.198 | 0.439
5 | NCI-H1651 | 0.534 | 0.61 | 0.611 | 0.6 | 0.885 | 0.881 | 0.871 | 0.881 | 0.868 | 0.925 | 0.995 | 0.698 | 0.743 | 0.852 | 0.686 | 0.758 | 0.272 | 0.0807 | 0.0995 | 0.527
6 | NCI-H2170 | 0.407 | 0.26 | 0.269 | 0.283 | 1.08 | 1.18 | 1.11 |  | 1.3 | 0.63 | 0.403 | 0.586 | 0.548 | 0.61 | 0.762 | 0.757 | 0.285 | 0.172 | 0.209 | 0.245
7 | NCI-H2023 | 0.229 | 0.228 | 0.236 | 0.268 | 0.655 | 0.571 | 0.648 | 0.508 | 0.733 | 0.766 | 1.03 | 0.871 | 0.594 | 0.888 | 0.398 | 0.406 | 0.189 | 0.0915 | 0.0907 | 0.253
8 | LC-2-ad | 0.24 | 0.281 | 0.269 | 0.272 | 0.449 |  | 0.453 | 0.44 | 0.51 | 0.979 | 1.12 | 0.955 | 1.04 | 1.16 | 0.903 | 0.743 | 0.247 | 0.283 | 0.33 | 0.266
